“And” between values parts separate entries of the source, which are not always exact repeats. Equal values may be shown once.
What was measured:
HepG2 cells [1] = conditions: cited from earlier work
A549 cells = tested on: A549 cells; parameters: method as in PMID 39057961; conditions: A549, 24 h, sub-IC50 and near IC50 concentrations; cited from earlier work
HEK293 cells [2] = experiment: MTS viability assay, HEK293; assay type: cell-based, human; conditions: HEK293, 24 h; for cell viability at LOAEL concentrations: CBD 2 μM, CIT 0.05 μM, alone or combined
Method: (§1) Human neuroblastoma SH-SY5Y cells (ECACC 94030304), human hepatocyte carcinoma HepG2 (ECACC 85011430) and human embryonic kidney HEK293 (ECACC 85120602) used in the experiments were obtained from the European Collection of Authenticated Cell Cultures (ECACC) through Sigma-Aldrich (Steinheim, Germany). SH-SY5Y cells were grown in Dulbecco’s Modified Eagle’s Medium F12 containing 15% (v/v) fetal bovine serum (FBS), 2 mM glutamine, 1% (v/v) penicillin/streptomycin (PenStrep solution), and 1% (v/v) non-essential amino acids (NEAA solution). HEK293 and HepG2 cells were grown in EMEM medium (Sigma-Aldrich, Steinheim, Germany) supplemented with 10% (v/v) FBS, 2 mM glutamine, 1% (v/v) PenStrep and 1% (v/v) NEAA. All media and supplements were purchased from Sigma-Aldrich, Steinheim, Germany. Cells were cultured at 37 °C in a 5% CO2 atmosphere, the medium was changed every two days, and passage was carried out according to the manufacturer’s protocol.
(§2) MTS assay (CellTiter 96® AQueous One Solution Cell Proliferation Assay, Promega, Madison, WI, USA) was used to determine the viability of cells/cytotoxic properties of tested compounds by measuring cells’ mitochondrial succinate dehydrogenase activity. The procedure followed a previously described protocol. In brief, the cells were seeded in transparent 96-well plates at a density of 20,000 cells/well one day before the experiment and treated with tested compounds in concentrations: 0.01, 0.1, 0.5, 1, 2, 5, 10, 25, 50, 100 and 300 µM. Triton X-100 at a final concentration of 0.18% (v/v) (stock of 9% in water; Sigma-Aldrich, Steinheim, Germany) was used as a positive control. After 24 h, treatment with tested compounds and incubation with MTS reagent, the absorbance was read at 492 nm on an Infinite M200PRO (Tecan Group Ltd., Männedorf, Switzerland) plate reader. Data were taken from at least three independent experiments (each treatment performed in duplicate or triplicate) and expressed as percentages (mean ± standard error) of viable cells compared to control (untreated) cells. IC50 values were determined by a nonlinear fit equation predefined in Prism software 8 (GraphPad Software, San Diego, CA, USA).
(§3) The same method was used to evaluate a potential toxic synergistic effect on cells exposed to a combination of CBD and CIT at approximately LOAEL doses (lowest observed adverse effect level, 1 and 30 μM for SH-SY5Y and HepG2, and 2 and 0.05 μM for HEK293, respectively). There is no official recommendation for CBD oral use, but according to the available literature, we used a dose that corresponded to daily intake, which was 10 mg/kg/day (calculated on a person of 70 kg ~ 1 μM). These selected LOAEL concentrations were used for all other assays as well.

[3] = MTS viability assay, HEK293; assay type: cell-based, human; conditions: human, HEK293 cells; HEK293, 24 h exposure, MTS; read-out: IC50 (cytotoxicity)
Method: as §1, §2, §3

HEK293 cells [4] = experiment: Cell membrane integrity (LDH release), HEK293; assay type: cell-based, human; conditions: HEK293, 24 h; CBD 2 μM, CIT 0.05 μM, alone or combined
Method: (§4) Cell membrane integrity was determined after exposure to compounds’ concentrations corresponding to LOAEL concentrations in 24 h by measuring the release of the intracellular lactate dehydrogenase (LDH) and the procedure followed a previously described protocol using The CytoTox-ONE™ Homogeneous Membrane Integrity Assay (Promega, Madison, WI, USA). In short, the cells were seeded in black 96-well plates at a density of 10,000 cells/well one day before the experiment and treated with selected LOAEL concentrations. Triton X-100 at a final concentration of 0.18% (v/v) (stock of 9% in water) was used as a positive control to determine the maximal LDH release. Data were taken from at least two independent experiments (each treatment performed in duplicate or triplicate) and plotted as a percentage of LDH release compared to the determined maximal LDH release, according to the manufacturer’s calculation protocol.

[5] = tested on: cultured human lymphocytes; parameters: method as in PMID 17265422; conditions: 48 h exposure, 60–100 μM; cited from earlier work
[6] = MTS viability assay, SH-SY5Y; assay type: cell-based, human; conditions: human, SH-SY5Y cells; SH-SY5Y, 24 h exposure, MTS; read-out: IC50 (cytotoxicity)
Method: as §1, §2, §3

SH-SY5Y cells = experiment: MTS viability assay, SH-SY5Y; assay type: cell-based, human; conditions: for IC20: Homo sapiens, established on SH-SY5Y and HepG2 cell models, read-out: IC20 concentration; for lowest observed adverse effect level (LOAEL), approximate / cell viability at LOAEL concentrations: SH-SY5Y, 24 h; for cell viability at LOAEL concentrations: CBD 1 μM, CIT 30 μM, alone or combined
Method: as §1, §2, §3

HepG2 cells [7] = experiment: Cell membrane integrity (LDH release), HepG2; assay type: cell-based, human; conditions: HepG2, 24 h; CBD 1 μM, CIT 30 μM, alone or combined
Method: as §4

HEK293 cells [8] = tested on: HEK293 cells; parameters: method as in PMID 13678658; conditions: HEK293, concentrations ≤60 μM for 24 h; cited from earlier work
human TK6 cells = tested on: human TK6 cells; parameters: method as in PMID 37105391; conditions: up to 10–11 μg/mL, with and without metabolic activation; cited from earlier work
[9] = parameters: method as in PMID 38908200; conditions: 24 h exposure to CBD samples; cited from earlier work
[10] = tested on: buccal-derived cells (TR146); parameters: method as in PMID 30341733; conditions: cited from earlier work
[11] = tested on: human liver cell line (HepG2); parameters: method as in PMID 30341733; conditions: cited from earlier work

Row | SMILES | DNA damage in comet assay (HepG2 cells [1]; HepG2, 24 h, sub-IC50 and near IC50 concentrations) | genotoxicity in comet assay (HepG2 cells [1]; HepG2) | DNA damage in comet assay (A549 cells) | IC50 fold lower than that of CBD (HEK293 cells [2]) [fold] | lowest observed adverse effect level (LOAEL), approximate (HEK293 cells [2]) [µM] | cell viability at LOAEL concentrations (HEK293 cells [2]) | IC50 at 24 h [3] [µM] | cell membrane integrity (LDH release) (HEK293 cells [4]) | induction of MNi vs negative controls [5] | IC50 at 24 h [6] [µM] | IC20 (SH-SY5Y cells) | lowest observed adverse effect level (LOAEL), approximate (SH-SY5Y cells) | cell viability at LOAEL concentrations (SH-SY5Y cells) | cell membrane integrity (LDH release) (HepG2 cells [7]) | toxic effect in Fpg-modified comet assay (HEK293 cells [8]) | genotoxic hazard (human TK6 cells) | genomic instability estimated by CBMN Cyt Assay [9] | level above which damage was found in MN assay [10] | level above which damage was found in MN assay [11]
1 | CC1=C2C(=CO[C@H](C)[C@H]2C)C(O)=C(C(=O)O)C1=O [CIT, citrinin] | induced significant DNA damage | no significant genotoxicity | induced significant DNA damage | 11 | ~0.05 | did not independently impact cell viability | 0.44 ± 0.02 | not significantly compromised | significant induction of MNi | 52 ± 8 | 30 µM and 7.5 µg/mL | ~30 µM | did not independently impact cell viability | not significantly compromised | did not show toxic effect | – | – | – | –
2 | C=C(C)[C@@H]1CCC(C)=C[C@H]1c1c(O)cc(CCCCC)cc1O [CBD, cannabidiol] | – | – | – | – | ~2 | did not independently impact cell viability | 5 ± 1 | not significantly compromised | – | 13 ± 2 | 1 µM and 3.15 µg/mL | ~ 1 μM | did not independently impact cell viability | not significantly compromised | – | did not pose a genotoxic hazard | no changes in genomic instability | above 0.2 µM | above 0.2 µM
